18 molecules from patent US20240124417A1, “COMPOUNDS USEFUL AS IMMUNOMODULATORS” (Bristol-Myers Squibb Company, priority 2019, published 2024) can be followed below.

The structures appear in SMILES notation.

For this experiment, the target named is T1, PD-1/PD-L1 (Homo sapiens, UniProt Q9NZQ7).
T1 construct: TVMV protease site linker (C); made in house; host or cells: HEK293T cells
T1 sequence (Q9NZQ7 18-239): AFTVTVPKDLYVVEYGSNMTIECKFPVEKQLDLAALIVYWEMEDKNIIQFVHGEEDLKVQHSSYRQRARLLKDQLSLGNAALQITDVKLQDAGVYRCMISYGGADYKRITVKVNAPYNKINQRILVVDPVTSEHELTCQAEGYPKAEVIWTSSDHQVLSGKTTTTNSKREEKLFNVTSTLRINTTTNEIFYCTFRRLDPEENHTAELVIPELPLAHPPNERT
Put plainly: PD-1/PD-L1 Homogenous Time-Resolved Fluorescence (HTRF) binding assay. To be noted: PD-L1-His 10 nM, PD-1-Ig 20 nM. From the text:
The ability of the compounds of the invention to bind to PD-L1 was investigated using a PD-1/PD-L1 Homogenous Time-Resolved Fluorescence (HTRF) binding assay.
Homogenous Time-Resolved Fluorescence (HTRF) binding assay.
The interaction of PD-1 and PD-L1 can be assessed using soluble, purified preparations of the extracellular domains of the two proteins. The PD-1 and PD-L1 protein extracellular domains were expressed as fusion proteins with detection tags, for PD-1, the tag was the Fc portion of Immunoglobulin (PD-1-Ig) and for PD-L1 it was the 6 histidine motif (PD-L1-His). All binding studies were performed in an HTRF assay buffer consisting of dPBS supplemented with 0.1% […] bovine serum albumin and 0.05% (v/v) Tween-20. For the h/PD-L1-His binding assay, inhibitors were pre-incubated with PD-L1-His (10 nM final) for 15 m in 4 μl of assay buffer, followed by addition of PD-1-Ig (20 nM final) in 1 μl of assay buffer and further incubation for 15 m. HTRF detection was achieved using europium crypate-labeled anti-Ig (1 nM final) and allophycocyanin (APC) labeled anti-His (20 nM final). Antibodies were diluted in HTRF detection buffer and 5 μl was dispensed on top of the binding reaction. […] Additional binding assays were established between the human proteins PD-1-Ig/PD-L2-His (20 & 5 nM, respectively) and CD80-His/PD-L1-Ig (100 & 10 nM, respectively). […]
In general, IC50 refers to the concentration needed to halve the response being measured. `Cc1c(COc2cc(OCc3cncc(C#N)c3)c(CN3CCCCC3c3cc[nH]n3)cc2Cl)cccc1-c1cccc(OCC2CCCN(C)C2)c1Cl` (stereo not drawn) [Example 1021, 5-((2-((2-(1H-Pyrazol-3-yl)piperidin-1-yl)methyl)-4-chloro-5-((2′-chloro-2-methyl-3′-((1-methyl-piperidin-3-yl)methoxy)-[1,1′-biphenyl]-3-yl)methoxy)phenoxy)methyl)-nicotinonitrile] showed an IC50 of 1.8 nM.

The molecule `Cc1c(COc2cc(OCc3cncc(C#N)c3)c(CN3CCCCC3c3cnn(C)c3)cc2Cl)cccc1-c1cccc(OCC2CCCN(C)C2)c1Cl` (stereo not drawn) [Example 1022, 5-((4-Chloro-5-((2′-chloro-2-methyl-3′-((1-methylpiperidin-3-yl)methoxy)-[1,1′-biphenyl]-3-yl)methoxy)-2-((2-(1-methyl-1H-pyrazol-4-yl)piperidin-1-yl)methyl)phenoxy)-methyl)nicotinonitrile] came in with an IC50 of 1.3 nM. This IC50 and that of the molecule before are within 1.5-fold of each other.

For the molecule `Cc1c(COc2cc(OCc3cncc(C#N)c3)c(CN3CCCC(c4cnn(C)c4)C3)cc2Cl)cccc1-c1cccc(OCC2CCCN(C)C2)c1Cl` (stereo not drawn) [Example 1023, 5-((4-Chloro-5-((2′-chloro-2-methyl-3′-((1-methylpiperidin-3-yl)methoxy)-[1,1′-biphenyl]-3-yl)methoxy)-2-((3-(1-methyl-1H-pyrazol-4-yl)piperidin-1-yl)methyl)-phenoxy)methyl)nicotinonitrile], the IC50 is 0.2 nM.

Take `Cc1c(COc2cc(OCc3cncc(C#N)c3)c(CN3CCCC(c4ccn[nH]4)C3)cc2Cl)cccc1-c1cccc(OCC2CCCN(C)C2)c1Cl` (stereo not drawn) [Example 1024, 5-((2-((3-(1H-Pyrazol-5-yl)piperidin-1-yl)methyl)-4-chloro-5-((2′-chloro-2-methyl-3′-((1-methylpiperidin-3-yl)methoxy)-[1,1′-biphenyl]-3-yl)methoxy)phenoxy)methyl)-nicotinonitrile]: the IC50 stood at 0.7 nM.

Take `Cc1c(COc2cc(OCc3cncc(C#N)c3)c(CN3CCCC3c3cn[nH]c3)cc2Cl)cccc1-c1cccc(OCC2CCCN(C)C2)c1Cl` (stereo not drawn) [Example 1025, 5-((2-((2-(1H-Pyrazol-4-yl)pyrrolidin-1-yl)methyl)-4-chloro-5-((2′-chloro-2-methyl-3′-((1-methylpiperidin-3-yl)methoxy)-[1,1′-biphenyl]-3-yl)methoxy)phenoxy)methyl)-nicotinonitrile]: the IC50 came out at 0.5 nM.

For `Cc1c(COc2cc(OCc3cncc(C#N)c3)c(CN3CCCC3c3ccn[nH]3)cc2Cl)cccc1-c1cccc(OCC2CCCN(C)C2)c1Cl` (stereo not drawn) [Example 1026, 5-((2-((2-(1H-Pyrazol-5-yl)pyrrolidin-1-yl)methyl)-4-chloro-5-((2′-chloro-2-methyl-3′-((1-methylpiperidin-3-yl)methoxy)-[1,1′-biphenyl]-3-yl)methoxy)phenoxy)methyl)-nicotinonitrile], the IC50 is 1.5 nM.

Turning to `Cc1n[nH]c(C)c1C(NCc1cc(Cl)c(OCc2cccc(-c3cccc(OCC4CCCN(C)C4)c3Cl)c2C)cc1OCc1cncc(C#N)c1)C(=O)O` (stereo not drawn) [Example 1027, 2-((5-Chloro-4-((2′-chloro-2-methyl-3′-((1-methylpiperidin-3-yl)methoxy)-[1,1′-biphenyl]-3-yl)methoxy)-2-((5-cyanopyridin-3-yl)methoxy)benzyl)amino)-2-(3,5-dimethyl-1H-pyrazol-4-yl)acetic acid], the IC50 amounted to 1.1 nM.

Molecule `Cc1c(COc2cc(OCc3cncc(C#N)c3)c(CNC(C(=O)O)c3cnn(C)c3)cc2Cl)cccc1-c1cccc(OCC2CCCN(C)C2)c1Cl` (stereo not drawn) [Example 1028, 2-((5-Chloro-4-((2′-chloro-2-methyl-3′-((1-methylpiperidin-3-yl)methoxy)-[1,1′-biphenyl]-3-yl)methoxy)-2-((5-cyanopyridin-3-yl)methoxy)benzyl)amino)-2-(1-methyl-1H-pyrazol-4-yl)acetic acid] registered an IC50 of 1.9 nM.

`Cc1c(COc2cc(OCc3cncc(C#N)c3)c(CN3CCC4C(C3)C(CO)=NN4C)cc2Cl)cccc1-c1cccc(OCC2CCCN(C)C2)c1Cl` (stereo not drawn) [Example 1029, 5-((4-Chloro-5-((2′-chloro-2-methyl-3′-((1-methylpiperidin-3-yl)methoxy)-[1,1′-biphenyl]-3-yl)methoxy)-2-((3-(hydroxymethyl)-1-methyl-1,3a,4,6,7,7a-hexahydro-5H-pyrazolo[4,3-c]pyridin-5-yl)methyl)phenoxy)methyl)nicotinonitrile] registered an IC50 of 2 nM.

Regarding `Cc1c(COc2cc(OCc3cncc(C#N)c3)c(CN(C)C(C)c3nnn[nH]3)cc2Cl)cccc1-c1cccc(OCCCNC[C@H](O)CO)c1C` (stereo partly drawn) [Example 1030, 5-((2-(((1-(1H-Tetrazol-5-yl)ethyl)(methyl)amino)methyl)-4-chloro-5-((3′-(3-(((S)-2,3-dihydroxypropyl)amino)propoxy)-2,2′-dimethyl-[1,1′-biphenyl]-3-yl)methoxy)-phenoxy)methyl)nicotinonitrile], the half-maximal inhibitory concentration (IC50) stood at 0.2 nM. Compared with the last molecule, the IC50 is about 10-fold lower.

The molecule `Cc1c(COc2cc(OCc3cncc(C#N)c3)c(CN3CCCCC3c3cn[nH]c3)cc2Cl)cccc1-c1cccc(OCCCNC[C@H](O)CO)c1Cl` (stereo partly drawn) [Example 1032, 5-((2-((2-(1H-Pyrazol-4-yl)piperidin-1-yl)methyl)-4-chloro-5-((2′-chloro-3′-(3-(((S)-2,3-dihydroxypropyl)amino)propoxy)-2-methyl-[1,1′-biphenyl]-3-yl)methoxy)phenoxy)-methyl)nicotinonitrile] came in with a half-inhibitory concentration (IC50) of 0.8 nM.

In the case of `Cc1c(COc2cc(OCc3cncc(C#N)c3)c(CN3CCC(c4nnn[nH]4)C3)cc2Cl)cccc1-c1cccc(OCCCNC[C@H](O)CO)c1Cl` (stereo partly drawn) [Example 1033, 5-((2-((3-(1H-Tetrazol-5-yl)pyrrolidin-1-yl)methyl)-4-chloro-5-((2′-chloro-3′-(3-(((S)-2,3-dihydroxypropyl)amino)propoxy)-2-methyl-[1,1′-biphenyl]-3-yl)methoxy)phenoxy)-methyl)nicotinonitrile], the IC50 was found to be 2.1 nM.

`Cc1c(COc2cc(OCc3cncc(C#N)c3)c(CN(C)C(C)c3nnn[nH]3)cc2Cl)cccc1-c1cccc(OCCCNC[C@H](O)CO)c1Cl` (stereo partly drawn) [Example 1034, 5-((2-(((1-(1H-Tetrazol-5-yl)ethyl)(methyl)amino)methyl)-4-chloro-5-((2′-chloro-3′-(3-(((S)-2,3-dihydroxypropyl)amino)propoxy)-2-methyl-[1,1′-biphenyl]-3-yl)methoxy)-phenoxy)methyl)-nicotinonitrile] registered a half-maximal inhibitory concentration (IC50) of 0.4 nM. This IC50 lies about 5.2-fold lower than the previous one.

`Cc1c(COc2cc(OCc3cncc(C#N)c3)c(CN(C)CC(C)c3nnn[nH]3)cc2Cl)cccc1-c1cccc(OCCCNC[C@H](O)CO)c1Cl` (stereo partly drawn) [Example 1035, 5-((2-(((2-(1H-Tetrazol-5-yl)propyl)(methyl)amino)methyl)-4-chloro-5-((2′-chloro-3′-(3-(((S)-2,3-dihydroxypropyl)amino)propoxy)-2-methyl-[1,1′-biphenyl]-3-yl)methoxy)-phenoxy)methyl)nicotinonitrile] gave an IC50 of 1.3 nM. This IC50 lies about 3.2-fold higher than the previous one.

For `CC(=O)NC1CCN(CCCOc2cccc(-c3cccc(COc4cc(OCc5cncc(C#N)c5)c(CNc5nnn[nH]5)cc4Cl)c3C)c2C)CC1` [Example 1036, N-(1-(3-((3′-((4-(((1H-Tetrazol-5-yl)amino)methyl)-2-chloro-5-((5-cyanopyridin-3-yl)-methoxy)phenoxy)methyl)-2,2′-dimethyl-[1,1′-biphenyl]-3-yl)oxy)propyl)piperidin-4-yl)-acetamide], the IC50 was 4.2 nM. Against the preceding molecule, the IC50 is about 3.2-fold higher.

Consider `CC(=O)NC1CCN(CCCOc2cccc(-c3cccc(COc4cc(OCc5cncc(C#N)c5)c(CN(C)CCc5nn[nH]n5)cc4Cl)c3C)c2C)CC1` [Example 1037, N-(1-(3-((3′-((4-(((2-(2H-Tetrazol-5-yl)ethyl)(methyl)amino)methyl)-2-chloro-5-((5-cyanopyridin-3-yl)methoxy)phenoxy)methyl)-2,2′-dimethyl-[1,1′-biphenyl]-3-yl)oxy)-propyl)piperidin-4-yl)acetamide], for which the half-inhibitory concentration (IC50) was 2.8 nM. Compared with the last molecule, the IC50 is about 1.5-fold lower.

In turn, `CC(=O)NC1CCN(CCCOc2cccc(-c3cccc(COc4cc(OCc5cncc(C#N)c5)c(CN5CCCC(c6ncc[nH]6)C5)cc4Cl)c3C)c2C)CC1` (stereo not drawn) [Example 1038, N-(1-(3-((3′-((4-((3-(1H-Imidazol-2-yl)piperidin-1-yl)methyl)-2-chloro-5-((5-cyano-pyridin-3-yl)methoxy)phenoxy)methyl)-2,2′-dimethyl-[1,1′-biphenyl]-3-yl)oxy)propyl)-piperidin-4-yl)acetamide] yielded an IC50 of 3.7 nM.

Regarding `CC(=O)NC1CCN(CCCOc2cccc(-c3cccc(COc4cc(OCc5cncc(C#N)c5)c(CN5CCCC(c6nnc[nH]6)C5)cc4Cl)c3C)c2C)CC1` (stereo not drawn) [Example 1039, N-(1-(3-((3′-((4-((3-(4H-1,2,4-Triazol-3-yl)piperidin-1-yl)methyl)-2-chloro-5-((5-cyano-pyridin-3-yl)methoxy)phenoxy)methyl)-2,2′-dimethyl-[1,1′-biphenyl]-3-yl)oxy)propyl)-piperidin-4-yl)acetamide], the half-maximal inhibitory concentration (IC50) was determined as 2.7 nM.
